Tests used:
[1] = test system: HCV replicon cells Huh 9B; format: cell-based; settings: concentration reducing total cell area by 50% relative to DMSO controls; 72 h
How it was run: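 Huh 9B replicon cells (luciferase-ubiquitin-neomycin fusion, EMCV-IRES-driven HCV polyprotein with adaptive mutations) were seeded from a 100,000 cells/ml suspension in G418-free medium, grown 24 h, then exposed to compound (dilutions at 1% DMSO) for 72 h at 37 °C. For toxicity, methylene blue staining was read at 620 nm and TD50 derived relative to DMSO controls.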

[2] = target: T1, Recombinant HCV polymerase (BK strain) (Hepatitis C virus genotype 1b, UniProt P26663); test: HCV polymerase enzyme assay (radiometric [33P]-UTP incorporation); format: biochemical, HCV 1b
T1 construct: Recombinant HCV polymerase (BK strain) was expressed and purified from E. coli with a 21 amino acid C-terminal deletion; His6; made in house; host or cells: E. coli
How it was run: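 His6-tagged BK-strain NS5B lacking 21 C-terminal residues, expressed in E. coli, at 100 nM in Tris pH 7.5 with 5 mM MgCl2 and 3% DMSO. Substrates: 125 nM biotin-U13:0.63 μg/ml PolyA, 200 nM UTP plus [33P]-UTP; 100 min at 25° C. Incorporation read by streptavidin capture; IC50 from 8-point curve.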

[3] = test system: HCV replicon cells Huh 9B; test: HCV replicon assay (luciferase); format: cell-based; settings: Hepatitis C virus, reduction of replicon level by 50% vs untreated cell control, 72 h

T1 sequence (P26663 2420-2989): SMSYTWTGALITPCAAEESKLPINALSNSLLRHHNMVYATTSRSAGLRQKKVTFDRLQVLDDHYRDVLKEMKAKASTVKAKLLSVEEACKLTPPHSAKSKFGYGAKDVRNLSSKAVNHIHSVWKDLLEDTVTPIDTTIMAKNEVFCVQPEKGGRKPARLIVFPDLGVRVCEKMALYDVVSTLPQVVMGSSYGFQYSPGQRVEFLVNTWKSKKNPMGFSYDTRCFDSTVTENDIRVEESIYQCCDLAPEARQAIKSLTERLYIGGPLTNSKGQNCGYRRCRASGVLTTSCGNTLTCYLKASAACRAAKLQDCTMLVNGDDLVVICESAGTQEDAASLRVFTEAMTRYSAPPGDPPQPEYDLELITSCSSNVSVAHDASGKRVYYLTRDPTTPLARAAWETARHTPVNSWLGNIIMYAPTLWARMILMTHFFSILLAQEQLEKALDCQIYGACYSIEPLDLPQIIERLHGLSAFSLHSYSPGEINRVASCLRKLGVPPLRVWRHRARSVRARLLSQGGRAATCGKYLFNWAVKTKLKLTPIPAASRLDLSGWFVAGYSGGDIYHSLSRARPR

Row | Compound | Replicon Assay Value TD50 [1] [µM] | IC50 [2] [nM] | IC50 [3] [nM]
1 | COCCOc1nccc(C)c1C(=O)NC1N=C(c2c(Cl)cc(Cl)cc2Cl)c2ccccc2NC1=O (stereo not drawn) [Example 40, 2-(2-Methoxyethoxy)-4-methyl-N-(2-oxo-5-(2,4,6-trichlorophenyl)-2,3-dihydro-1H-benzo[e][1,4]diazepin-3-yl)nicotinamide] | 24.518 | 2960 | 856
2 | COCCN(C)c1ncc(F)cc1C(=O)NC1N=C(c2c(Cl)cc(Cl)cc2Cl)c2ccccc2NC1=O (stereo not drawn) [Example 41, 5-Fluoro-2-((2-methoxyethyl)(methyl)amino)-N-(2-oxo-5-(2,4,6-trichlorophenyl)-2,3-dihydro-1H-benzo[e][1,4]diazepin-3-yl)nicotinamide] | 24.146 | 129 | 24.7
3 | COCCNc1ncc(F)cc1C(=O)NC1N=C(c2c(Cl)cc(Cl)cc2Cl)c2ccccc2NC1=O (stereo not drawn) [Example 42, 5-Fluoro-2-(2-methoxyethylamino)-N-(2-oxo-5-(2,4,6-trichlorophenyl)-2,3-dihydro-1H-benzo[e][1,4]diazepin-3-yl)nicotinamide] | 17.784 | 969 | 2640
4 | CCN(CCOC)c1ncc(F)cc1C(=O)NC1N=C(c2c(Cl)cc(Cl)cc2Cl)c2ccccc2NC1=O (stereo not drawn) [Example 43, 2-(Ethyl(2-methoxyethyl)amino)-5-fluoro-N-(2-oxo-5-(2,4,6-trichlorophenyl)-2,3-dihydro-1H-benzo[e][1,4]diazepin-3-yl)nicotinamide] | 23.97 | 204 | 787
5 | COCCN(c1ncc(F)cc1C(=O)NC1N=C(c2c(Cl)cc(Cl)cc2Cl)c2ccccc2NC1=O)C(C)C (stereo not drawn) [Example 44, 5-Fluoro-2-(isopropyl(2-methoxyethyl)amino)-N-(2-oxo-5-(2,4,6-trichlorophenyl)-2,3-dihydro-1H-benzo[e][1,4]diazepin-3-yl)nicotinamide] | 23.394 | 1330 | 2650
6 | CCOCCN(CC)c1ncc(F)cc1C(=O)NC1N=C(c2c(Cl)cc(Cl)cc2Cl)c2ccccc2NC1=O (stereo not drawn) [Example 45, 2-((2-Ethoxyethyl)(ethyl)amino)-5-fluoro-N-(2-oxo-5-(2,4,6-trichlorophenyl)-2,3-dihydro-1H-benzo[e][1,4]diazepin-3-yl)nicotinamide] | 18.864 | 176 | 752
7 | CN(CCOCC1CC1)c1ncc(F)cc1C(=O)NC1N=C(c2c(Cl)cc(Cl)cc2Cl)c2ccccc2NC1=O (stereo not drawn) [Example 46, 2-((2-(Cyclopropylmethoxy)ethyl)(methyl)amino)-5-fluoro-N-(2-oxo-5-(2,4,6-trichlorophenyl)-2,3-dihydro-1H-benzo[e][1,4]diazepin-3-yl)nicotinamide] | 15.961 | 168 | 151
8 | COCCOc1ccc(Cl)cc1C(=O)NC1N=C(c2c(Cl)cccc2Cl)c2ccccc2NC1=O (stereo not drawn) [Example 47, 5-Chloro-N-(5-(2,6-dichlorophenyl)-2-oxo-2,3-dihydro-1H-benzo[e][1,4]diazepin-3-yl)-2-(2-methoxyethoxy)benzamide] | >25 | 149 | 583
9 | COCCOc1ccc(F)cc1C(=O)NC1N=C(c2c(Cl)cccc2Cl)c2ccccc2NC1=O (stereo not drawn) [Example 48, N-(5-(2,6-Dichlorophenyl)-2-oxo-2,3-dihydro-1H-benzo[e][1,4]diazepin-3-yl)-5-fluoro-2-(2-methoxyethoxy)benzamide] | >25 | 155 | 703
10 | COCCOc1ccc(Cl)cc1C(=O)NC1N=C(c2c(Cl)cc(Cl)cc2CN2CCOCC2)c2ccccc2NC1=O (stereo not drawn) [Example 49, 5-Chloro-N-(5-(2,4-dichloro-6-(morpholinomethyl)phenyl)-2-oxo-2,3-dihydro-1H-benzo[e][1,4]diazepin-3-yl)-2-(2-methoxyethoxy)benzamide] | 11.02 | 829 | 167
11 | COCCOc1ccc(F)cc1C(=O)NC1N=C(c2c(Cl)cc(Cl)cc2CN2CCOCC2)c2ccccc2NC1=O (stereo not drawn) [Example 50, N-(5-(2,4-Dichloro-6-(morpholinomethyl)phenyl)-2-oxo-2,3-dihydro-1H-benzo[e][1,4]diazepin-3-yl)-5-fluoro-2-(2-methoxyethoxy)benzamide] | 11.74 | 666 | 208
12 | COCCOc1ncc(Cl)cc1C(=O)NC1N=C(c2c(Cl)cc(Cl)cc2CN2CCOCC2)c2ccccc2NC1=O (stereo not drawn) [Example 51, 5-Chloro-N-(5-(2,4-dichloro-6-(morpholinomethyl)phenyl)-2-oxo-2,3-dihydro-1H-benzo[e][1,4]diazepin-3-yl)-2-(2-methoxyethoxy)nicotinamide] | >25 | 1230 | 281
13 | COCCOc1ncc(F)cc1C(=O)NC1N=C(c2c(Cl)cc(Cl)cc2CN2CCOCC2)c2ccccc2NC1=O (stereo not drawn) [Example 52, N-(5-(2,4-Dichloro-6-(morpholinomethyl)phenyl)-2-oxo-2,3-dihydro-1H-benzo[e][1,4]diazepin-3-yl)-5-fluoro-2-(2-methoxyethoxy)nicotinamide] | 24.829 | 605 | 129
14 | COCCOc1ccc(F)cc1C(=O)NC1N=C(c2c(Cl)cc(Cl)cc2OC)c2ccccc2NC1=O (stereo not drawn) [Example 53, N-(5-(2,4-Dichloro-6-methoxyphenyl)-2-oxo-2,3-dihydro-1H-benzo[e][1,4]diazepin-3-yl)-5-fluoro-2-(2-methoxyethoxy)benzamide] | 24.827 | 154 | 59.5
15 | CCOCCOc1ncc(F)cc1C(=O)NC1N=C(c2c(Cl)cc(Cl)cc2OC)c2ccccc2NC1=O (stereo not drawn) [Example 55, N-(5-(2,4-Dichloro-6-methoxyphenyl)-2-oxo-2,3-dihydro-1H-benzo[e][1,4]diazepin-3-yl)-2-(2-ethoxyethoxy)-5-fluoronicotinamide] | 18.821 | 116 | 27
16 | CCOc1cc(Cl)cc(Cl)c1C1=NC(NC(=O)c2cc(F)ccc2OCCOC)C(=O)Nc2ccccc21 (stereo not drawn) [Example 56, N-(5-(2,4-Dichloro-6-ethoxyphenyl)-2-oxo-2,3-dihydro-1H-benzo[e][1,4]diazepin-3-yl)-5-fluoro-2-(2-methoxyethoxy)benzamide] | 11.349 | 154 | 38.9
17 | CCOc1cc(Cl)cc(Cl)c1C1=NC(NC(=O)c2cc(F)cnc2OCCOC)C(=O)Nc2ccccc21 (stereo not drawn) [Example 57, N-(5-(2,4-Dichloro-6-ethoxyphenyl)-2-oxo-2,3-dihydro-1H-benzo[e][1,4]diazepin-3-yl)-5-fluoro-2-(2-methoxyethoxy)nicotinamide] | 22.698 | 72 | 20.3
18 | CCOCCOc1ncc(F)cc1C(=O)NC1N=C(c2c(Cl)cc(Cl)cc2OCC)c2ccccc2NC1=O (stereo not drawn) [Example 58, N-(5-(2,4-Dichloro-6-ethoxyphenyl)-2-oxo-2,3-dihydro-1H-benzo[e][1,4]diazepin-3-yl)-2-(2-ethoxyethoxy)-5-fluoronicotinamide] | 11.875 | 69 | 9.9
19 | COCCOc1ccc(Cl)cc1C(=O)N[C@H]1N=C(c2c(Cl)cc(Cl)cc2Cl)c2ccccc2NC1=O [Example 59, (S)-5-Chloro-2-(2-methoxyethoxy)-N-(2-oxo-5-(2,4,6-trichlorophenyl)-2,3-dihydro-1H-benzo[e][1,4]diazepin-3-yl)benzamide] | >25 | 87.6 | 45.3
20 | COCCOc1ccc(Cl)cc1C(=O)N[C@@H]1N=C(c2c(Cl)cc(Cl)cc2Cl)c2ccccc2NC1=O [Example 60, (R)-5-Chloro-2-(2-methoxyethoxy)-N-(2-oxo-5-(2,4,6-trichlorophenyl)-2,3-dihydro-1H-benzo[e][1,4]diazepin-3-yl)benzamide] | >25 | 27700 | 798
21 | COCCOc1ccc(F)cc1C(=O)N[C@H]1N=C(c2c(Cl)cc(Cl)cc2Cl)c2ccccc2NC1=O [Example 61, (S)-5-Fluoro-2-(2-methoxyethoxy)-N-(2-oxo-5-(2,4,6-trichlorophenyl)-2,3-dihydro-1H-benzo[e][1,4]diazepin-3-yl)benzamide] | 17.347 | 44.4 | 16.7
22 | COCCOc1ccc(F)cc1C(=O)N[C@@H]1N=C(c2c(Cl)cc(Cl)cc2Cl)c2ccccc2NC1=O [Example 62, (R)-5-Fluoro-2-(2-methoxyethoxy)-N-(2-oxo-5-(2,4,6-trichlorophenyl)-2,3-dihydro-1H-benzo[e][1,4]diazepin-3-yl)benzamide] | 24.765 | 16800 | 594
23 | COCCOc1ncc(F)cc1C(=O)N[C@H]1N=C(c2c(Cl)cc(Cl)cc2Cl)c2ccccc2NC1=O [Example 63, (S)-5-Fluoro-2-(2-methoxyethoxy)-N-(2-oxo-5-(2,4,6-trichlorophenyl)-2,3-dihydro-1H-benzo[e][1,4]diazepin-3-yl)nicotinamide] | 17.386 | 50.5 | 9.7

From patent US20110059043A1, “CHEMICAL COMPOUNDS” (priority 2009, published 2011)
